Patent EP0238178B1, “Novel derivatives of erythromycylamine” (ELI LILLY AND COMPANY, priority 1986, dated 1987)
≈ marks a conversion by molar mass, not a printed value. Read-outs that look alike come from different tables or passages of the source.

How the values were obtained:
[1] = test system: Staphylococcus aureus X1.1; experiment: MIC, standard agar-dilution assay; format: cell-based
[2] = test system: Streptococcus sp. group D 2041; experiment: MIC, standard agar-dilution assay; format: cell-based
[3] = test system: Klebsiella pneumoniae X68; experiment: MIC, standard agar-dilution assay; format: cell-based
[4] = test system: Staphylococcus epidermidis 222; experiment: MIC, standard agar-dilution assay; format: cell-based
[5] = test system: Staphylococcus aureus S13E; experiment: MIC, standard agar-dilution assay; format: cell-based
[6] = test system: Staphylococcus aureus X400; experiment: MIC, standard agar-dilution assay; format: cell-based
Excerpt: (§1) In addition to excellent in vitro activity against erythromycin-sensitive bacteria, several members of this new series have shown in vitro activity against erythromycin-resistant strains. These include strains which are inducibly-resistant to erythromycin (S.. aureus V41 and X400 and S. epidermidis EPI1) and even strains which are constitutively-resistant (S. epidermidis 270).

[7] = test system: Staphylococcus aureus V41; experiment: MIC, standard agar-dilution assay; format: cell-based
Excerpt: as §1

[8] = test system: Haemophilus influenzae 76; experiment: MIC, standard agar-dilution assay; format: cell-based; conditions: Haemophilus influenzae 76, Ampicillin-resistant strain
[9] = test system: Streptococcus pneumoniae Park I; experiment: MIC, standard agar-dilution assay; format: cell-based
[10] = test system: Streptococcus pyogenes C203; experiment: MIC, standard agar-dilution assay; format: cell-based
Escherichia coli EC14 = experiment: MIC, standard agar-dilution assay; format: cell-based
[11] = test system: Streptococcus sp. group D X66; experiment: MIC, standard agar-dilution assay; format: cell-based
[12] = test system: Haemophilus influenzae C.L.; experiment: MIC, standard agar-dilution assay; format: cell-based; conditions: Ampicillin-sensitive strain
Staphylococcus aureus = experiment: Experimental bacterial infection in mice, ED50; format: in vivo; conditions: Staphylococcus aureus, two doses, dose protecting 50% of animals
Experimental: (§2) The new derivatives of this invention have also shown in vivo antimicrobial activity against experimental bacterial infections. When two doses of test compound were administered to mice in experimental infections, the activity observed was measured as an EDso value [effective dose in mg/kg to protect 50% of the test animals: see Warren Wick, et al., J. Bacteriol. 81, 233-235 (1961)].

Streptococcus pneumoniae = experiment: Experimental bacterial infection in mice, ED50; format: in vivo; conditions: Streptococcus pneumoniae, po, two doses, dose protecting 50% of animals, read-out: Oral ED50
Experimental: as §2

Streptococcus pyogenes = experiment: Experimental bacterial infection in mice, ED50; format: in vivo; conditions: Streptococcus pyogenes, po, two doses, dose protecting 50% of animals, read-out: Oral ED50
Experimental: as §2

[13] = test system: Staphylococcus epidermidis EPI1; experiment: MIC, standard agar-dilution assay; format: cell-based
Excerpt: as §1

[14] = Staphylococcus aureus X400, Methicillin-resistant strain, inducibly-resistant to erythromycin, read-out: MIC
[15] = Staphylococcus aureus V41, Penicillin-resistant strain, inducibly-resistant to erythromycin, read-out: MIC
[16] = Streptococcus sp. group D X66, read-out: MIC

Molecule: 9-Deoxo-9-[(5-dimethylamino-2-pentyl)amino]-9,11-1N,O)-cyclic. Methylene Adduct of Erythromycin [Compound 63]
- MIC [1]: 8 mg/L
- MIC [2]: 32 mg/L
- MIC [3]: 128 mg/L
- MIC [4]: 8 mg/L
- MIC [5]: 8 mg/L
- MIC ([6]; Staphylococcus aureus X400, Methicillin-resistant strain, inducibly-resistant to erythromycin): – (– = >128)
- MIC ([7]; Staphylococcus aureus V41, Penicillin-resistant strain, inducibly-resistant to erythromycin): – (– = >128)
- MIC [8]: 8 mg/L
- MIC [9]: 0.5 mg/L
- MIC [10]: 0.5 mg/L
- MIC (Escherichia coli EC14): 32 mg/L
- MIC ([11]; Streptococcus sp. group D X66): 2 mg/L
- MIC [12]: 8 mg/L

Molecule: CC[C@H]1OC(=O)[C@H](C)[C@@H](O[C@H]2C[C@@](C)(OC)[C@@H](O)[C@H](C)O2)[C@H](C)[C@@H](O[C@@H]2O[C@H](C)C[C@H](N(C)C)[C@H]2O)[C@](C)(O)C[C@@H](C)[C@H](NC)[C@H](C)[C@@H](O)[C@]1(C)O [Compound 1, 9-Deoxo-9-(methylamino)erythromycin]
- MIC ([1]; read-out: MIC): 1 mg/L (≈ 1.34 µM)
- MIC ([2]; read-out: MIC): 1 mg/L (≈ 1.34 µM)
- MIC ([3]; read-out: MIC): 64 mg/L (≈ 85.4 µM)
- MIC ([4]; read-out: MIC): 0.25 mg/L (≈ 0.334 µM)
- MIC [5]: 0.125 mg/L (≈ 0.167 µM)
- MIC [6, 14]: 64 mg/L (≈ 85.4 µM)
- MIC [7, 15]: 64 mg/L (≈ 85.4 µM)
- MIC ([8]; read-out: MIC): 1 mg/L (≈ 1.34 µM)
- MIC ([10]; read-out: MIC): 0.06 mg/L (≈ 0.0801 µM)
- ED50 (Staphylococcus aureus; po, read-out: Oral ED50): 43.8 mg/kg
- ED50 (Streptococcus pneumoniae): 35.4 mg/kg
- ED50 (Streptococcus pyogenes): 21 mg/kg
- MIC (Escherichia coli EC14; read-out: MIC): 32 mg/L (≈ 42.7 µM)
- MIC ([11]; Streptococcus): 0.125 mg/L (≈ 0.167 µM)
- MIC ([12]; read-out: MIC): 0.5 mg/L (≈ 0.668 µM)

Molecule: CCC(CC)CN[C@@H]1[C@H](C)[C@@H](O)[C@](C)(O)[C@@H](CC)OC(=O)[C@H](C)[C@@H](O[C@H]2C[C@@](C)(OC)[C@@H](O)[C@H](C)O2)[C@H](C)[C@@H](O[C@@H]2O[C@H](C)C[C@H](N(C)C)[C@H]2O)[C@](C)(O)C[C@H]1C [Compound 12, 9-Deoxo-9-[(2-ethylbutyl)amino]erythromycin]
- MIC ([1]; read-out: MIC): 0.5 mg/L (≈ 0.61 µM)
- MIC ([2]; read-out: MIC): 8 mg/L (≈ 9.77 µM)
- MIC ([3]; read-out: MIC): 32 mg/L (≈ 39.1 µM)
- MIC ([4]; read-out: MIC): 0.5 mg/L (≈ 0.61 µM)
- MIC [5]: 0.25 mg/L (≈ 0.305 µM)
- MIC [6, 14]: 16 mg/L (≈ 19.5 µM)
- MIC [7, 15]: 16 mg/L (≈ 19.5 µM)
- MIC ([8]; read-out: MIC): 2 mg/L (≈ 2.44 µM)
- MIC ([9]; read-out: MIC): 0.015 mg/L (≈ 0.0183 µM)
- MIC ([10]; read-out: MIC): 0.015 mg/L (≈ 0.0183 µM)
- ED50 (Staphylococcus aureus; po, read-out: Oral ED50): 22.3 mg/kg
- ED50 (Streptococcus pneumoniae): 16.6 mg/kg
- ED50 (Streptococcus pyogenes): 9.4 mg/kg
- MIC (Escherichia coli EC14; read-out: MIC): 64 mg/L (≈ 78.1 µM)
- MIC [11, 16]: 0.125 mg/L (≈ 0.153 µM)
- MIC ([12]; read-out: MIC): 2 mg/L (≈ 2.44 µM)

Molecule: CC[C@H]1OC(=O)[C@H](C)[C@@H](O[C@H]2C[C@@](C)(OC)[C@@H](O)[C@H](C)O2)[C@H](C)[C@@H](O[C@@H]2O[C@H](C)C[C@H](N(C)C)[C@H]2O)[C@](C)(O)C[C@@H](C)[C@H](NCCC(C)CCCC(C)(C)OC)[C@H](C)[C@@H](O)[C@]1(C)O (stereo partly drawn) [Compound 24, 9-Deoxo-9-[(7-methoxy-3,7-dimethyloctyl)amino]erythromycin]
- MIC ([1]; read-out: MIC): 0.5 mg/L (≈ 0.552 µM)
- MIC ([2]; read-out: MIC): 2 mg/L (≈ 2.21 µM)
- MIC ([4]; read-out: MIC): 0.25 mg/L (≈ 0.276 µM)
- MIC [5]: 0.25 mg/L (≈ 0.276 µM)
- MIC [6, 14]: 64 mg/L (≈ 70.7 µM)
- MIC [7, 15]: 64 mg/L (≈ 70.7 µM)
- MIC ([8]; read-out: MIC): 2 mg/L (≈ 2.21 µM)
- MIC ([10]; read-out: MIC): 0.015 mg/L (≈ 0.0166 µM)
- ED50 (Staphylococcus aureus; po, read-out: Oral ED50): > 45.6 mg/kg
- ED50 (Streptococcus pneumoniae): 23.6 mg/kg
- ED50 (Streptococcus pyogenes): 25 mg/kg
- MIC (Escherichia coli EC14; read-out: MIC): 128 mg/L (≈ 141 µM)
- MIC [11, 16]: 0.03 mg/L (≈ 0.0331 µM)
- MIC ([12]; read-out: MIC): 1 mg/L (≈ 1.1 µM)

Molecule: CC[C@H]1OC(=O)[C@H](C)[C@@H](O[C@H]2C[C@@](C)(OC)[C@@H](O)[C@H](C)O2)[C@H](C)[C@@H](O[C@@H]2O[C@H](C)C[C@H](N(C)C)[C@H]2O)[C@](C)(O)C[C@@H](C)[C@H]2[C@H](C)[C@@H](OCN2C(C)C)[C@]1(C)O [Compound 58, 9-Deoxo-9-[isopropylamino]-9,11-(N,O)-cyclic Methylene Adduct of Erythromycin]
- MIC ([1]; read-out: MIC): 1 mg/L (≈ 1.27 µM)
- MIC ([2]; read-out: MIC): 4 mg/L (≈ 5.07 µM)
- MIC ([3]; read-out: MIC): 64 mg/L (≈ 81.1 µM)
- MIC ([4]; read-out: MIC): 0.5 mg/L (≈ 0.634 µM)
- MIC [5]: 1 mg/L (≈ 1.27 µM)
- MIC [13]: 128 mg/L (≈ 162 µM)
- MIC ([6]; Staphylococcus aureus, X400): > 128 mg/L
- MIC ([7]; Staphylococcus aureus, V41): > 128 mg/L
- MIC ([8]; read-out: MIC): 4 mg/L (≈ 5.07 µM)
- MIC ([9]; read-out: MIC): 0.06 mg/L (≈ 0.076 µM)
- MIC ([10]; read-out: MIC): 0.125 mg/L (≈ 0.158 µM)
- ED50 (Staphylococcus aureus; sc, subcutaneous, read-out: Subcutaneous ED50): > 10 mg/kg
- ED50 (Streptococcus pneumoniae): 5.7 mg/kg
- ED50 (Streptococcus pyogenes): 6.7 mg/kg
- MIC (Escherichia coli EC14; read-out: MIC): 32 mg/L (≈ 40.6 µM)
- MIC [11, 16]: 0.25 mg/L (≈ 0.317 µM)
- MIC ([12]; read-out: MIC): 4 mg/L (≈ 5.07 µM)
